Assay results: US20120238566A1, “USE OF CELL AUTOPHAGY (TYPE II CELL APOPTOSIS) INHIBITORS” (priority 2009, published 2012)
Entries after “also recorded” stand apart in the source; their conditions may differ. Where two headings read alike, the source gives them in different places.

What was measured:
A549 cells [1] = type: cell-based
Balb/c mice lung [2] = settings: mouse, in vivo
Balb/c mice lung [3] = settings: mouse, in vivo; remark: listed apart in the source
A549 cells [4] = type: cell-based; remark: listed apart in the source
A549 cells [5] = type: cell-based; remark: listed apart in the source
LC3 = system: LC3; parameters: species or system Balb/c mice; settings: mouse, in vivo
Balb/c mice lung [6] = settings: mouse, in vivo; remark: listed apart in the source
Balb/c mice lung [7] = settings: mouse, in vivo; remark: listed apart in the source
Balb/c mice = settings: mouse, in vivo

Structure (SMILES) | cell autophagy induced by inactivated H5N1 avian influenza virus, electron microscope (A549 cells [1]) | lung injury, pathological sections (Balb/c mice lung [2]) | counts of inflammatory cells in lung pathological sections (Balb/c mice lung [3]) | percentage of A549 cells with autophagy induced by PAMAM G3, electron microscope (A549 cells [1]) | percentage of cells with EGFP-LC3 agglutination (A549 cells [4]) | survival rate of A549 cells (A549 cells [5]) | content of LC3 II in mice lung tissue (ratio to β-actin) (LC3) | lung wet/dry ratio (Balb/c mice lung [6]) | lung wet/dry ratio (Balb/c mice lung [6]; ip) | lung elasticity (Balb/c mice lung [7]) | survival curve of mice (Balb/c mice)
C[S+]([O-])c1ccc(-c2nc(-c3ccncc3)c(-c3ccc(F)cc3)[nH]2)cc1 (stereo not shown) [SB203580] | reduced cell autophagy; also recorded: can effectively inhibit the occurrence of autophagy | has some effect on ameliorating the lung injury; also recorded: has some effect on amelioratiing the lung injury | reduced the counts of infiltrated inflammatory cells; also recorded: reduced the augmentation of infiltrated inflammatory cells | – | – | – | – | – | – | – | –
Cn1cnc(N)c2ncnc1-2 [3-MA, 3-methyladenine] | – | has some effect on ameliorating the lung injury | reduced the augmentation of the counts inflammatory cells | can be relieved; also recorded: reduced the percentage of cells with autophagy | can be relieved | decreases the cell death; also recorded: can significantly reduce cell death | relieved the occurrence of autophagy | decreased the augmentation of wet/dry ratio | relieved the increased lung wet/dry ratio | relieves the changes of lung elasticity; also recorded: has some effect on relieving the induced injury | can significantly relieve the death of mice; also recorded: has effect on delaying the death of mice
